Test results taken from US12139487B2, “Compounds and uses thereof” (Foghorn Therapeutics Inc., priority 2022, dated 2024).

Legend:
[1] = test system: BRM-dependent transcription (BRG1 mutant lung cancer cell line A549); assay: BRM-dependent transcription, MMTV luciferase reporter in BRG1 mutant A549 cells; assay type: cell-based; settings: Table 11; for IC50: A549-MMTV luciferase reporter, dexamethasone induced, 6 hours; for Ratio (MDA-MMTV IC50 (μM) divided by A549-MMTV IC50 (μM)): MMTV luciferase reporter cell lines, selectivity BRG1/BRM
Method: The potential inhibitory effects of compounds on BRG1 and BRM dependent transcription was study by testing the activity of against the BRG1 mutant lung cancer cell line A549 and a MDA cell line with BRM removed by CRISPR. Both cell lines were genetically engineered with a BRG1 or BRM-dependent mouse mammary tumor virus luciferase reporter. Luciferase transcription was induced by dexamethasone in the presence of compound at different concentrations and luminescence was measured using a plate reader 6 hours after stimulation.

[2] = molecular target: T1, BRM (Homo sapiens, UniProt P51531); assay: ATPase catalytic activity assay (ADP-Glo), BRM; assay type: biochemical; settings: ATPase assay, selectivity BRG1/BRM, Table 10
T1 construct: made in house; host or cells: High Five insect cells
Method: The ATPase catalytic activity of BRM or BRG-1 was measured by an in vitro biochemical assay using ADP-Glo™ (Promega, V9102). The ADP-Glo™ kinase assay is performed in two steps once the reaction is complete. The first step is to deplete any unconsumed ATP in the reaction. The second step is to convert the reaction product ADP to ATP, which will be utilized by the luciferase to generate luminesce and be detected by a luminescence reader, such as Envision.
The assay reaction mixture […] contains 30 nM of BRM or BRG-1, 20 nM salmon sperm DNA (from Invitrogen, UltraPure™ Salmon Sperm DNA Solution, cat #15632011), and 400 μM of ATP in the ATPase assay buffer, which comprises of 20 mM Tris, pH 8, 20 mM MgCl2, 50 mM NaCl, 0.1% Tween-20, and 1 mM fresh DTT (Pierce™ DTT (Dithiothreitol), cat #20290). The reaction is initiated by the addition of the 2.5 μL ATPase solution to 2.5 μL ATP/DNA solution on low volume white Proxiplate-384 plus plate (PerkinElmer, cat #6008280) and incubates at room temperature for 1 hour. Then, following addition of 5 μL of ADP-Glo™ Reagent provided in the kit, the reaction incubates at room temperature for 40 minutes. Then, 10 μL of Kinase Detection Reagent provided in the kit is added to convert ADP to ATP, and the reaction incubates at room temperature for 60 minutes. Finally, luminescence measurement is collected with a plate-reading luminometer, such as Envision.

T1 sequence (P51531 whole entry): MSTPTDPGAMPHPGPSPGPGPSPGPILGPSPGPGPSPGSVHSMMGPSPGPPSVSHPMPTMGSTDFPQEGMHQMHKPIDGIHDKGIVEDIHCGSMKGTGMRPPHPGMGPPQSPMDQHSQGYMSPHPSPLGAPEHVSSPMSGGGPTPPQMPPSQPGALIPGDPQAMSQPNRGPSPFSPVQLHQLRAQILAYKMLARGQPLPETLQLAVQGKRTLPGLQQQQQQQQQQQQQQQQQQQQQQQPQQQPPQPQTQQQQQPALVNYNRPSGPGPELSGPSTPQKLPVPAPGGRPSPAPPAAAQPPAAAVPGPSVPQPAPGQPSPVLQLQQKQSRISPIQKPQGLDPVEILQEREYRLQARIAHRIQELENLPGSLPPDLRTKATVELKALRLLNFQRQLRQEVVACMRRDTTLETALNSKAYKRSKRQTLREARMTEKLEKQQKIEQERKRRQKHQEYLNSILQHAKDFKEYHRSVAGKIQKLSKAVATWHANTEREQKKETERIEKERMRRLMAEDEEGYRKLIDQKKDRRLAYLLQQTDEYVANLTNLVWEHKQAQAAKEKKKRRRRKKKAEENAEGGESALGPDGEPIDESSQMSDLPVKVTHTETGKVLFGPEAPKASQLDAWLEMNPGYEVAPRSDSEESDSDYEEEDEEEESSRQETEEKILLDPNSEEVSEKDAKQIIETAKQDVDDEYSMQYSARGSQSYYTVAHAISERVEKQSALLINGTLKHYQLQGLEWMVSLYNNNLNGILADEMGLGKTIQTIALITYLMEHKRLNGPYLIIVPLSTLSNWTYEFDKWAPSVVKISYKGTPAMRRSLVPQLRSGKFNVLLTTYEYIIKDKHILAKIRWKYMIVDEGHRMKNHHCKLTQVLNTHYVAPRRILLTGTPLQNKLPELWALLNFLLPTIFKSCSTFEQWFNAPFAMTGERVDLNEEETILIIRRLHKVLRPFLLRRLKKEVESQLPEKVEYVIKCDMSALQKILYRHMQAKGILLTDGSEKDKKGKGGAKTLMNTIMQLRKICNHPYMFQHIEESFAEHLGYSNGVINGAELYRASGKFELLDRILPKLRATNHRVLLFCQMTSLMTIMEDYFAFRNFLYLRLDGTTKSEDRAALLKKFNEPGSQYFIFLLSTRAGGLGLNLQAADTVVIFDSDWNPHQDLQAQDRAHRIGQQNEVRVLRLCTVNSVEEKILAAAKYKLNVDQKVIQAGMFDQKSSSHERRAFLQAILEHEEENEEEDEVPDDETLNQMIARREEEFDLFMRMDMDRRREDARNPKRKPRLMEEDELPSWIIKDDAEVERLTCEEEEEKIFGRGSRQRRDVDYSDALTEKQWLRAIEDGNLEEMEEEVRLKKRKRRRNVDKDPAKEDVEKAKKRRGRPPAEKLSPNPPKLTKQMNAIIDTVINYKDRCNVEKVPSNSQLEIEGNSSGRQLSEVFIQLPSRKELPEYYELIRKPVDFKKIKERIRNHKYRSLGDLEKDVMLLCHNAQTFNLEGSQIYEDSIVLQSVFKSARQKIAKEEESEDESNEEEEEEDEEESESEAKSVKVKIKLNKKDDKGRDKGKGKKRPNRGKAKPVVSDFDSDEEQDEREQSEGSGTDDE

Row | SMILES | IC50 ([1]; Homo sapiens, A549, 6 h) [nM] | Ratio (MDA-MMTV IC50 (μM) divided by A549-MMTV IC50 (μM)) [1] | IC50 [1] [nM] | Ratio (BRG1 IC50 (μM) divided by BRM IC50 (μM)) [2]
1 | COc1nc([C@@H](C)C(F)F)ccc1-c1ccc2cnc(CNC(=O)c3cc(F)c4c(c3)S(=O)(=O)[C@@H](F)CCO4)cc2n1 [Compound 366] | 24.1 | 29.97 |  | 
2 | CCOc1nc([C@H](C)F)ccc1-c1ccc2cnc(CNC(=O)c3cc(F)c4c(c3)S(=O)(=O)[C@@H](F)COC4)cc2n1 [Compound 395] | 4.7 | 21.65 |  | 
3 | CCOc1nc(C(F)F)ncc1-c1ccc2cnc(CNC(=O)c3cc(C(F)F)c4c(c3)S(=O)(=O)[C@@H](F)COC4)cc2n1 [Compound 510] | 14.6 | 22.06 |  | 
4 | COc1nc([C@@](C)(F)C(F)F)ccc1-c1ccc2cnc(CNC(=O)c3cc(F)c4c(c3)S(=O)(=O)[C@@H](F)CCO4)cc2n1 [Compound 356] | 14.6 | 23.98 |  | 
5 | O=C(NCc1cc2nc(-c3ccc(C(F)F)nc3OCC3CC3)ccc2cn1)c1cc(F)c2c(c1)S(=O)(=O)[C@@H](F)COC2 [Compound 488] | 7.9 | 26.53 |  | 
6 | [2H]C([2H])([2H])C([2H])([2H])Oc1ccc(-c2ccc3cnc(CNC(=O)c4cc(F)c5c(c4)S(=O)(=O)[C@@]([2H])(F)C([2H])([2H])C([2H])([2H])O5)cc3n2)nc1C1CC1(F)F (stereo partly shown) [Compound 378] | 11.1 | 43.63 |  | 
7 | [2H]C([2H])([2H])Oc1ccc(-c2ccc3cnc(CNC(=O)c4cc(C(F)F)c5c(c4)S(=O)(=O)[C@@H](F)COC5)cc3n2)nc1[C@H]1CC1(F)F [Compound 459] | 15.3 | 27.87 |  | 
8 | COc1nc(OC(F)F)ccc1-c1ccc2cnc(CNC(=O)c3cc(Cl)c4c(c3)S(=O)(=O)[C@@H](F)COC4)cc2n1 [Compound 409] | 14.1 | 25.36 |  | 
9 | C[C@@H]1CN(c2cccc(-c3cnc4cnc(CNC(=O)c5cc(F)c6c(c5)S(=O)(=O)[C@@H](F)CCO6)cc4n3)n2)C[C@H](C)O1 [Compound 405, (4R)—N-[[2-[6-[(2R,6S)-2,6-dimethylmorpholin-4-yl]-2-pyridyl]pyrido[3,4-b]pyrazin-7-yl]methyl]-4,9-difluoro-5,5-dioxo-3,4-dihydro-2H-1,5λ6-benzoxathiepine-7-carboxamide] | 2.8 | 22.10 |  | 
10 | O=C(NCc1cc2nc(-n3cc(F)c(OC(F)F)n3)ccc2cn1)c1cc(C(F)F)c2c(c1)S(=O)(=O)[C@@H](F)COC2 [Compound 514, (2R)—N-[[2-[3-(difluoromethoxy)-4-fluoro-pyrazol-1-yl]-1,6-naphthyridin-7-yl]methyl]-6-(difluoromethyl)-2-fluoro-1,1-dioxo-3,5-dihydro-2H-4,1benzoxathiepine-8-carboxamide] | 21 | 32.01 |  | 
11 | COc1nc([C@](C)(F)C(F)F)ccc1-c1ccc2cnc(CNC(=O)c3cc(F)c4c(c3)S(=O)(=O)[C@@H](F)CCO4)cc2n1 [Compound 363] | 16.9 | 22.45 |  | 
12 | [2H]C([2H])([2H])C([2H])([2H])Oc1ccc(-c2ccc3cnc(CNC(=O)c4cc(F)c5c(c4)S(=O)(=O)[C@@H](F)COC5)cc3n2)nc1[C@@H]1CC1(F)F [Compound 464] | 7.1 | 39.23 |  | 
13 | CCOc1nc([C@@H](F)CF)ccc1-c1ccc2cnc(CNC(=O)c3cc(Br)c4c(c3)S(=O)(=O)[C@@H](F)COC4)cc2n1 [Compound 456] |  | 40.89 | 9.7 | 
14 | C[C@@H]1CCN1c1cnc2c(-c3ccc4cnc(CNC(=O)c5cc(F)c6c(c5)S(=O)(=O)[C@@H](F)COC6)cc4n3)cccc2c1 [Compound 470] |  | 29.42 | 4.1 | 
15 | O=C(NCc1cc2nc(-c3ccc([C@@H](F)C(F)F)c(C4CC4)n3)ccc2cn1)c1cc(Br)c2c(c1)S(=O)(=O)[C@@H](F)COC2 [Compound 483] | 11.1 | 28.21 |  | 
16 | O=C(NCc1cc2nc(-c3ccc([C@@H](F)CF)c(C4CC4)n3)ccc2cn1)c1cc(F)c2c(c1)S(=O)(=O)[C@@H](F)CCO2 [Compound 406] | 5.9 | 27.42 |  | 
17 | CCOc1nc(C(F)F)ccc1-c1ccc2cnc(CNC(=O)c3cc(Br)c4c(c3)S(=O)(=O)[C@@H](F)COC4)cc2n1 [Compound 436] | 13.1 | 43.58 |  | 
18 | CCOc1nc(C(C)(F)F)ccc1-c1ccc2cnc(CNC(=O)c3cc(Cl)c4c(c3)S(=O)(=O)[C@@H](F)COC4)cc2n1 [Compound 445] | 21.2 | 22.07 |  | 
19 | O=C(NCc1cc2nc(-c3cccc(C4CC4)n3)ccc2cn1)c1cc(Br)c2c(c1)S(=O)(=O)[C@@H](F)COC2 [Compound 417] | 27.5 | 39.11 |  | 
20 | O=C(NCc1cc2nc(-c3ccc(C(F)F)nc3OCC3CC3)ccc2cn1)c1cc(F)c2c(c1)S(=O)(=O)[C@@H](F)CCO2 [Compound 332, (4R)—N-[[2-[2-(cyclopropylmethoxy)-6-(difluoromethyl)-3-pyridyl]-1,6-naphthyridin-7-yl]methyl]-4,9-difluoro-5,5-dioxo-3,4-dihydro-2H-1,5benzoxathiepine-7-carboxamide] | 21 | 28.13 |  | 
21 | C#Cc1cc(C(=O)NCc2cc3nc(-c4cccc(N5C[C@@H](C)O[C@@H](C)C5)n4)ccc3cn2)cc2c1COC[C@H](F)S2(=O)=O [Compound 393] | 20.3 | 36.31 |  | 
22 | C[C@@H]1CCN1c1cnc2c(-c3ccc4cnc(CNC(=O)c5cc(Cl)c6c(c5)S(=O)(=O)[C@@H](F)COC6)cc4n3)cccc2c1 [Compound 497] |  | 29.41 | 12.4 | 
23 | C=C(F)c1cc(C(=O)NCc2cc3nc(-c4cccc(N5C[C@@H](C)O[C@@H](C)C5)n4)ccc3cn2)cc2c1OCC[C@H](F)S2(=O)=O [Compound 443] | 15.2 | 27.83 |  | 
24 | C[C@@H]1CN(c2cccc(-c3ccc4cnc(CNC(=O)c5cc(F)c6c(c5)S(=O)(=O)[C@@H](F)CCO6)cc4n3)n2)C[C@H](C)O1 [Compound 325] |  |  |  | 13.06
25 | [2H]C([2H])([2H])c1cc(C(=O)NCc2cc3nc(-c4cccc(N5C[C@@H](C)O[C@@H](C)C5)n4)ccc3cn2)cc2c1OCC[C@H](F)S2(=O)=O [Compound 433] | 3 | 27.74 |  | 
26 | CCOc1nc([C@@H](F)CF)ccc1-c1ccc2cnc(CNC(=O)c3cc(Cl)c4c(c3)S(=O)(=O)[C@@H](F)COC4)cc2n1 [Compound 475] | 7.1 | 37.21 |  | 
27 | [2H]C([2H])([2H])Oc1ccc(-c2ccc3cnc(CNC(=O)c4cc(Cl)c5c(c4)S(=O)(=O)[C@@H](F)COC5)cc3n2)nc1C1CC1 [Compound 523] | 16.2 | 26.20 |  | 
28 | C[C@H](F)c1ccc(-c2ccc3cnc(CNC(=O)c4cc(F)c5c(c4)S(=O)(=O)[C@@H](F)CCO5)cc3n2)c(OC(F)F)n1 [Compound 389] | 3.2 | 26.77 |  | 
29 | [2H]C([2H])([2H])OCCOc1cnc2c(c1)OCCN2c1ccc2cnc(CNC(=O)c3cc(C(F)F)c4c(c3)S(=O)(=O)[C@@H](F)COC4)cc2n1 [Compound 484] | 5.4 | 28.00 |  | 
30 | C[C@@H]1CN(c2cccc(-c3ccc4cnc(CNC(=O)c5cc(F)c6c(c5)S(=O)(=O)[C@@H](F)CCO6)cc4n3)n2)C[C@H](C)O1 [Compound 14] |  |  |  | 9.92
